# From paper PMC7615656 (European journal of pharmacology, 2010)
# Experiments:
# [1] = molecular target: recombinant rat α1β3γ2 receptors (Rattus norvegicus, UniProt P18508+P62813); test: Two-electrode voltage clamp of GABA-induced chloride currents in Xenopus oocytes; assay type: cell-based; conditions: for efficacy (% GABA EC3): ns = not significant
# [2] = molecular target: recombinant rat α1β3γ2F77I receptors (Rattus norvegicus, UniProt P18508+P62813, F115I); test: as above; assay type: cell-based; conditions: α1β3γ2F77I, ns = not significant
# [3] = molecular target: recombinant rat α2β3γ2 receptors (Rattus norvegicus, UniProt P18508+P23576); test: as above; assay type: cell-based; conditions: for efficacy (% GABA EC3): α2β3γ2, ns = not significant
# [4] = molecular target: recombinant rat α2β3γ2F77I receptors (Rattus norvegicus, UniProt P18508+P23576, F115I); test: as above; assay type: cell-based; conditions: α2β3γ2F77I, ns = not significant
# [5] = molecular target: recombinant rat α3β3γ2 receptors (Rattus norvegicus, UniProt P18508+P20236); test: as above; assay type: cell-based; conditions: for efficacy (% GABA EC3): α3β3γ2, ns = not significant
# [6] = molecular target: recombinant rat α3β3γ2F77I receptors (Rattus norvegicus, UniProt P18508+P20236, F115I); test: as above; assay type: cell-based; conditions: α3β3γ2F77I, ns = not significant
# [7] = molecular target: recombinant rat α4β3γ2 receptors (Rattus norvegicus, UniProt P18508+P28471); test: as above; assay type: cell-based; conditions: for efficacy (% GABA EC3): ns = not significant
# [8] = molecular target: recombinant rat α4β3γ2F77I receptors (Rattus norvegicus, UniProt P18508+P28471, F115I); test: as above; assay type: cell-based; conditions: ns = not significant
# [9] = molecular target: recombinant rat α5β3γ2 receptors (Rattus norvegicus, UniProt P18508+P19969); test: as above; assay type: cell-based; conditions: for efficacy (% GABA EC3): ns = not significant
# [10] = molecular target: recombinant rat α5β3γ2F77I receptors (Rattus norvegicus, UniProt P18508+P19969, F115I); test: as above; assay type: cell-based; conditions: for efficacy (% GABA EC3): α5β3γ2F77I, ns = not significant
# [11] = molecular target: recombinant rat α6β3γ2 receptors (Rattus norvegicus, UniProt P18508+P30191); test: as above; assay type: cell-based; conditions: for efficacy (% GABA EC3): ns = not significant
# [12] = molecular target: recombinant rat α6β3γ2F77I receptors (Rattus norvegicus, UniProt P18508+P30191, F115I); test: as above; assay type: cell-based; conditions: ns = not significant
# [13] = test system: GABAA receptors containing the γ2F77I mutation; test: Modulation of GABA EC3 in receptors containing the γ2F77I mutation; assay type: cell-based, rat; conditions: for activity in the mutated receptors: up to 100 nM
# [14] = test system: GABAA receptors of mice containing the point mutation γ2F77I; conditions: receptor binding; ref Ogris et al., 2004; cited from earlier work
# Chain of recombinant rat α6β3γ2F77I receptors (P30191 20-453): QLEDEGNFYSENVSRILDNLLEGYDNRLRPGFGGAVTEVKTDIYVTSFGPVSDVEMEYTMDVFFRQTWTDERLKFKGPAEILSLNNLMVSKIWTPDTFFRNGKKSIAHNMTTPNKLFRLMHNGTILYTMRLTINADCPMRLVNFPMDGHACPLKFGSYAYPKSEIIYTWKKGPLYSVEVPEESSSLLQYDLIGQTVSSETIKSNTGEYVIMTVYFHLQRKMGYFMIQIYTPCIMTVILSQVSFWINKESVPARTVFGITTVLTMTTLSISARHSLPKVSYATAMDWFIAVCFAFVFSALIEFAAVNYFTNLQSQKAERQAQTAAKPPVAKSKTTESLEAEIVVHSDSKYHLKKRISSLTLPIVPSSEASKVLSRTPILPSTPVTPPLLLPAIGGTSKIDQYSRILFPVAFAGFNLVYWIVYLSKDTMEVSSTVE
# Chain of recombinant rat α6β3γ2F77I receptors (P63079 26-473 partner): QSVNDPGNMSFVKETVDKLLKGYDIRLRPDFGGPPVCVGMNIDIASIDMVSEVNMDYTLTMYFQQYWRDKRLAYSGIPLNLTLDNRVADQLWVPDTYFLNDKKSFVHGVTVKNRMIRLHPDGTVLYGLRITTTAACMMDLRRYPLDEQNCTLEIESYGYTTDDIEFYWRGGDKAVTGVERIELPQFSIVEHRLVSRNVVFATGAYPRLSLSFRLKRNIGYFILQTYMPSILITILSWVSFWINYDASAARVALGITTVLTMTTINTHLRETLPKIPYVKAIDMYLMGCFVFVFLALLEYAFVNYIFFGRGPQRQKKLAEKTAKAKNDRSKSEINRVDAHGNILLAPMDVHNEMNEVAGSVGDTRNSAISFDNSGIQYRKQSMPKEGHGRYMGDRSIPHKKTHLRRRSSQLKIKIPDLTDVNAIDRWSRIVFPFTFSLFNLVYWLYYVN
# Chain of recombinant rat α6β3γ2F77I receptors (P18508 39-466 F115I): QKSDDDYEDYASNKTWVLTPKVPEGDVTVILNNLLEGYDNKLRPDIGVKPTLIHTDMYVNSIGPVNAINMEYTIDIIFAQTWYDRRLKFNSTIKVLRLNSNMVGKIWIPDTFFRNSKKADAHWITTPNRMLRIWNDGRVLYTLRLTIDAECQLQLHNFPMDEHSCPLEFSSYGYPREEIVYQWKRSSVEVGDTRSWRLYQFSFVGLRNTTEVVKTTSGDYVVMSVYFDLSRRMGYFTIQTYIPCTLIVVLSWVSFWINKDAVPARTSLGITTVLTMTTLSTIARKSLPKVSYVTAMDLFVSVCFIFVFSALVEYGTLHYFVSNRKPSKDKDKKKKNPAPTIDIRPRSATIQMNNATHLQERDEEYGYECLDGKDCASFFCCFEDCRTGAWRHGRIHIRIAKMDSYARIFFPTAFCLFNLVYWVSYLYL
# Chain of recombinant rat α6β3γ2 receptors (P30191 20-453): as the sequence (P30191 20-453) above
# Chain of recombinant rat α6β3γ2 receptors (P63079 26-473 partner): as the sequence (P63079 26-473 partner) above
# Chain of recombinant rat α6β3γ2 receptors (P18508 39-466): as the sequence (P18508 39-466 F115I) above, with I77F counted along it
# Chain of recombinant rat α5β3γ2F77I receptors (P19969 32-464 limits assumed): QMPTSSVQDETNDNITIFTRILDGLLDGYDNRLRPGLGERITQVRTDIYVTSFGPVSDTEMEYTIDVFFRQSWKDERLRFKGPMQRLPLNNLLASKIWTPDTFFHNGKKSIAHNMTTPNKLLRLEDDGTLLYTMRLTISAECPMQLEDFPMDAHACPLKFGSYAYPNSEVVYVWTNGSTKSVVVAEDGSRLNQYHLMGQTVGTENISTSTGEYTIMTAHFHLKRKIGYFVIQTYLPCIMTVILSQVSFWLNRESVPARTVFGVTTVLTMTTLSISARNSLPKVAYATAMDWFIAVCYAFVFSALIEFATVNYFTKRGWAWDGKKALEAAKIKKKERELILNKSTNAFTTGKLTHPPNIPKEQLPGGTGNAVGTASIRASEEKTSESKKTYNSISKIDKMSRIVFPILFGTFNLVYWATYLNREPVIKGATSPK
# Chain of recombinant rat α5β3γ2F77I receptors (P63079 26-473 partner): as the sequence (P63079 26-473 partner) above
# Chain of recombinant rat α5β3γ2F77I receptors (P18508 39-466 F115I): as the sequence (P18508 39-466 F115I) above
compound,measurement,setting,value
"CC(C)(C)OC(=O)c1ncn2c1[C@@H]1CCCN1C(=O)c1c(Br)cccc1-2 [Bretazenil, t-butyl(s)-8-bromo-11,12,13,13a-tetrahydro-9-oxo-9H-imidazo[1,5-a] pyrrolo[2,1-c][1,4]benzodiazepine-1-carboxylate]",EC50,[1],4 ± 1 nM
same,efficacy (% GABA EC3),"[1]; 10 nM, α1β3γ2",126 ± 5 % GABA EC3
same,efficacy (% GABA EC3),"[1]; 100 nM, α1β3γ2",134 ± 7 % GABA EC3
same,efficacy (% GABA EC3),"[1]; 1 μM, α1β3γ2",136 ± 9 % GABA EC3
same,efficacy (% GABA EC3),"[1]; 10 μM, α1β3γ2",138 ± 10 % GABA EC3
same,efficacy (% GABA EC3),[2]; 10 nM,ns
same,efficacy (% GABA EC3),[2]; 100 nM,120 ± 6 % GABA EC3
same,efficacy (% GABA EC3),[2]; 1 μM,149 ± 12 % GABA EC3
same,efficacy (% GABA EC3),[2]; 10 μM,164 ± 21 % GABA EC3
same,EC50,[3],7 ± 1 nM
same,efficacy (% GABA EC3),[3]; 10 nM,119 ± 4 % GABA EC3
same,efficacy (% GABA EC3),[3]; 100 nM,128 ± 5 % GABA EC3
same,efficacy (% GABA EC3),[3]; 1 μM,130 ± 7 % GABA EC3
same,efficacy (% GABA EC3),[3]; 10 μM,129 ± 10 % GABA EC3
same,efficacy (% GABA EC3),[4]; 10 nM,ns
same,efficacy (% GABA EC3),[4]; 1 μM,125 ± 3 % GABA EC3
same,efficacy (% GABA EC3),[4]; 10 μM,179 ± 8 % GABA EC3
same,EC50,[5],15 ± 2 nM
same,efficacy (% GABA EC3),[5]; 10 nM,154 ± 6 % GABA EC3
same,efficacy (% GABA EC3),[5]; 100 nM,213 ± 11 % GABA EC3
same,efficacy (% GABA EC3),[5]; 1 μM,224 ± 14 % GABA EC3
same,efficacy (% GABA EC3),[5]; 10 μM,234 ± 17 % GABA EC3
same,efficacy (% GABA EC3),[6]; 10 nM,ns
same,efficacy (% GABA EC3),[6]; 100 nM,117 ± 3 % GABA EC3
same,efficacy (% GABA EC3),[6]; 1 μM,143 ± 7 % GABA EC3
same,efficacy (% GABA EC3),[6]; 10 μM,238 ± 15 % GABA EC3
same,EC50,[7],> 354 nM
same,efficacy (% GABA EC3),"[7]; 10 nM, α4β3γ2",ns
same,efficacy (% GABA EC3),"[7]; 100 nM, α4β3γ2",156 ± 11 % GABA EC3
same,efficacy (% GABA EC3),"[7]; 1 μM, α4β3γ2",332 ± 23 % GABA EC3
same,efficacy (% GABA EC3),"[7]; 10 μM, α4β3γ2",395 ± 8 % GABA EC3
same,efficacy (% GABA EC3),[8]; 10 nM,ns
same,efficacy (% GABA EC3),[8]; 100 nM,ns
same,efficacy (% GABA EC3),[8]; 1 μM,ns
same,efficacy (% GABA EC3),[8]; 10 μM,ns
same,EC50,[9],9 ± 2 nM
same,efficacy (% GABA EC3),"[9]; 10 nM, α5β3γ2",168 ± 13 % GABA EC3
same,efficacy (% GABA EC3),"[9]; 100 nM, α5β3γ2",205 ± 17 % GABA EC3
same,efficacy (% GABA EC3),"[9]; 1 μM, α5β3γ2",216 ± 22 % GABA EC3
same,efficacy (% GABA EC3),"[9]; 10 μM, α5β3γ2",228 ± 23 % GABA EC3
same,EC50,[10],> 748 nM
same,efficacy (% GABA EC3),[10]; 10 nM,ns
same,efficacy (% GABA EC3),[10]; 100 nM,124 ± 3 % GABA EC3
same,efficacy (% GABA EC3),[10]; 1 μM,193 ± 8 % GABA EC3
same,efficacy (% GABA EC3),[10]; 10 μM,249 ± 11 % GABA EC3
same,EC50,[11],> 322 nM
same,efficacy (% GABA EC3),"[11]; 10 nM, α6β3γ2",ns
same,efficacy (% GABA EC3),"[11]; 100 nM, α6β3γ2",ns
same,efficacy (% GABA EC3),"[11]; 1 μM, α6β3γ2",202 ± 12 % GABA EC3
same,efficacy (% GABA EC3),"[11]; 10 μM, α6β3γ2",231 ± 13 % GABA EC3
same,efficacy (% GABA EC3),[12]; 10 nM,ns
same,efficacy (% GABA EC3),[12]; 100 nM,ns
same,efficacy (% GABA EC3),[12]; 1 μM,ns
same,efficacy (% GABA EC3),[12]; 10 μM,ns
same,activity in the mutated receptors,[13],inactive
"CCOC(=O)c1ncn2c1CN(C)C(=O)c1cc(F)ccc1-2 [Ro15–1788, ethyl-8-fluoro-5,6-dihydro-5-methyl-6-oxo-4H-imidazo[1,5-a][1,4]benzodiazepine-3-carboxylate]",efficacy (% GABA EC3),"[1]; 10 nM, α1β3γ2",ns
same,efficacy (% GABA EC3),"[1]; 100 nM, α1β3γ2",ns
same,efficacy (% GABA EC3),"[1]; 1 μM, α1β3γ2",ns
same,efficacy (% GABA EC3),"[1]; 10 μM, α1β3γ2",ns
same,"maximal effect on GABA-induced chloride flux (GABA EC3), % of control current","[1]; α1β3γ2, control current = 100%",no significant effects
same,efficacy (% GABA EC3),[2]; 10 nM,ns
same,efficacy (% GABA EC3),[2]; 100 nM,ns
same,efficacy (% GABA EC3),[2]; 1 μM,ns
same,efficacy (% GABA EC3),[2]; 10 μM,ns
same,efficacy (% GABA EC3),[3]; 10 nM,121 ± 2 % GABA EC3
same,efficacy (% GABA EC3),[3]; 100 nM,128 ± 4 % GABA EC3
same,efficacy (% GABA EC3),[3]; 1 μM,130 ± 5 % GABA EC3
same,efficacy (% GABA EC3),[3]; 10 μM,133 ± 7 % GABA EC3
same,efficacy (% GABA EC3),[4]; 10 nM,ns
same,efficacy (% GABA EC3),[4]; 100 nM,ns
same,efficacy (% GABA EC3),[4]; 1 μM,ns
same,efficacy (% GABA EC3),[4]; 10 μM,ns
same,efficacy (% GABA EC3),[5]; 10 nM,128 ± 4 % GABA EC3
same,efficacy (% GABA EC3),[5]; 100 nM,148 ± 7 % GABA EC3
same,efficacy (% GABA EC3),[5]; 1 μM,156 ± 8 % GABA EC3
same,efficacy (% GABA EC3),[5]; 10 μM,157 ± 8 % GABA EC3
same,efficacy (% GABA EC3),[6]; 10 nM,ns
same,efficacy (% GABA EC3),[6]; 100 nM,106 ± 1 % GABA EC3
same,efficacy (% GABA EC3),[6]; 1 μM,118 ± 2 % GABA EC3
same,efficacy (% GABA EC3),[6]; 10 μM,139 ± 4 % GABA EC3
same,EC50,[7],> 232 nM
same,efficacy (% GABA EC3),"[7]; 10 nM, α4β3γ2",ns
same,efficacy (% GABA EC3),"[7]; 100 nM, α4β3γ2",132 ± 8 % GABA EC3
same,efficacy (% GABA EC3),"[7]; 1 μM, α4β3γ2",162 ± 19 % GABA EC3
same,efficacy (% GABA EC3),"[7]; 10 μM, α4β3γ2",181 ± 10 % GABA EC3
same,efficacy (% GABA EC3),[8]; 10 nM,ns
same,efficacy (% GABA EC3),[8]; 100 nM,ns
same,efficacy (% GABA EC3),[8]; 1 μM,ns
same,efficacy (% GABA EC3),[8]; 10 μM,ns
same,efficacy (% GABA EC3),"[9]; 10 nM, α5β3γ2",ns
same,efficacy (% GABA EC3),"[9]; 100 nM, α5β3γ2",ns
same,efficacy (% GABA EC3),"[9]; 1 μM, α5β3γ2",ns
same,efficacy (% GABA EC3),"[9]; 10 μM, α5β3γ2",ns
same,"maximal effect on GABA-induced chloride flux (GABA EC3), % of control current","[9]; α5β3γ2, control current = 100%",no significant effects
same,efficacy (% GABA EC3),[10]; 10 nM,ns
same,efficacy (% GABA EC3),[10]; 100 nM,ns
same,efficacy (% GABA EC3),[10]; 1 μM,ns
same,efficacy (% GABA EC3),[10]; 10 μM,ns
same,efficacy (% GABA EC3),"[11]; 10 nM, α6β3γ2",ns
same,efficacy (% GABA EC3),"[11]; 100 nM, α6β3γ2",128 ± 18 % GABA EC3
same,efficacy (% GABA EC3),"[11]; 1 μM, α6β3γ2",166 ± 9 % GABA EC3
same,efficacy (% GABA EC3),"[11]; 10 μM, α6β3γ2",179 ± 6 % GABA EC3
same,efficacy (% GABA EC3),[12]; 10 nM,ns
same,efficacy (% GABA EC3),[12]; 100 nM,ns
same,efficacy (% GABA EC3),[12]; 1 μM,ns
same,efficacy (% GABA EC3),[12]; 10 μM,ns
same,activity in the mutated receptors,[13],inactive
"Cc1ccc(-c2nc3ccc(C)cn3c2CC(=O)N(C)C)cc1 [Zolpidem, N,N,6-trimethyl-2-(4-methylphenyl)imidazo[1,2-a]-pyridine-3-acetamide]",efficacy (% GABA EC3),[2]; 100 nM,ns
same,efficacy (% GABA EC3),[2]; 1 μM,ns
same,efficacy (% GABA EC3),[2]; 10 μM,142 ± 8 % GABA EC3
same,efficacy (% GABA EC3),[4]; 100 nM,ns
same,efficacy (% GABA EC3),[4]; 1 μM,ns
same,efficacy (% GABA EC3),[4]; 10 μM,145 ± 3 % GABA EC3
same,efficacy (% GABA EC3),[6]; 100 nM,ns
same,efficacy (% GABA EC3),[6]; 1 μM,ns
same,efficacy (% GABA EC3),[6]; 10 μM,145 ± 5 % GABA EC3
same,efficacy (% GABA EC3),"[7]; 100 nM, α4β3γ2",ns
same,efficacy (% GABA EC3),"[7]; 1 μM, α4β3γ2",ns
same,efficacy (% GABA EC3),"[7]; 10 μM, α4β3γ2",ns
same,"maximal effect on GABA-induced chloride flux (GABA EC3), % of control current","[7]; α4β3γ2, control current = 100%",did not significantly enhance
same,efficacy (% GABA EC3),"[9]; 100 nM, α5β3γ2",ns
same,efficacy (% GABA EC3),"[9]; 1 μM, α5β3γ2",ns
same,efficacy (% GABA EC3),"[9]; 10 μM, α5β3γ2",ns
same,efficacy (% GABA EC3),"[9]; 10 μM, α5β3γ2, listed as zolpidem",unable to modulate
same,efficacy (% GABA EC3),[10]; 100 nM,ns
same,efficacy (% GABA EC3),[10]; 1 μM,ns
same,efficacy (% GABA EC3),"[11]; 10 μM, α6β3γ2",ns
same,"maximal effect on GABA-induced chloride flux (GABA EC3), % of control current","[11]; α6β3γ2, control current = 100%",did not significantly enhance
same,stimulation of GABA-induced chloride flux,"[13]; 10 μM, some γ2F77I receptors",20–40%
same,shift in affinity caused by γ2F77I,[14],approximately 300 fold
